Assay results taken from article PMC12771125, “Compounds Reducing Human Sperm Motility as Potential Nonhormonal Contraceptives Identified Using a High-Throughput Phenotypic Screening Platform” (ACS Omega, 2025).
≈ marks a conversion by molar mass, not a printed value. Where two headings read alike, the source gives them in different places.

Experiments:
HepG2 cells = assay: HepG2 cytotoxicity assay (resazurin, 72 h); format: cell-based, human; settings: Homo sapiens, HepG2, 72 h; read-out: HepG2 pEC50 (converted)
Source text: Our overarching aims for investigating our chemical series and deciding which ones had the potential for further progression were to achieve adequate potency in our motility assay, suitable solubility, and minimal cytotoxicity in HepG2 cells. This third point was often the most challenging, as multiple series had cytotoxicity in HepG2 cells. This observation is perhaps not surprising; many potential targets in sperm cells can also be found in somatic cells. Our cytotoxicity assay is run with an incubation time of 72 h, to give time for gross cytotoxic effects to become apparent.
Compound dilution curves were plated directly using a Labcyte Echo 550 acoustic dispenser (125 nL) in 384-well white clear-bottom plates (Greiner). HepG2 cells (ATCCHepG2 HB-8065) were cultured in minimum essential medium (supplemented with glutamax) with 10% FCS and plated (25 μL) using a WellMate dispenser ([…]) and incubated for 72 h. Doxorubicin was used as a positive control drug. Resazurin was then added to each well at a final concentration of 45 μM, and fluorescence was measured using a PHERAstar LS (BMG Labtech) after 4 h of further incubation (excitation of 528 nm and emission of 590 nm). Raw data were normalized to controls and expressed as % growth.
Figure S2: Concentration-response curves from high throughput HepG2 viability assay. Each compound was tested in duplicate and the curves of each replicate are shown. The reported values in the tables are an average of the 2 pEC50 values obtained. […]
determine 0% effect, positive control used to determine 100% effect).
Hit compounds 1a, 6b and 7a were repurchased from commercial suppliers including enamine and […]

human sperm = assay: Reduction of sperm motility (RSM) high-throughput phenotypic assay; format: cell-based; settings: Homo sapiens, reduction of progressive sperm motility relative to control
Description: Using our previously established phenotypic human sperm motility screening platform, we screened a large subset (62,621 compounds) of one of our in-house diversity libraries (National Phenotypic Screening Centre (NPSC) Diversity Set) (Figure A,B). Briefly, human sperm are collected, isolated from semen, distributed into 384-well plates with test compounds, time-lapse images of sperm movement are recorded using a high-content imager, and progressive motility parameters are calculated using custom data analysis software. Sperm motility is complicated, and the mechanisms underpinning its regulation are not fully understood. Progressive motility, which is a measurement of the movement of forward progression of sperm, is most closely linked to sperm quality, and the percentage of progressively motile sperm compared to control is therefore the parameter utilized during the work described in this paper. […]
We used an HTS screening platform to assess the motility of live human spermatozoa. The platform and its development are described in detail in Gruber et al. , and summarized below in brief. The platform was used to screen compound libraries specifically focusing on reduction in motility. Interesting compounds were examined in further detail as possible starting points for a medicinal chemistry program. The experimental design is illustrated in Figure .
Donors were local to the Dundee area, over the age of 18, and had no known fertility problems and normal sperm concentration, motility and semen characteristics according to WHO 2021 criteria. Special category personal data for donors, such as ethnic origin, was not recorded in accordance with ethical approval and UK GDPR. Samples were obtained by masturbation, after sexual abstinence of 2–5 days, and delivered to the research laboratory within one h of production. Samples were allowed to liquefy at 37 °C for 15–30 min prior to preparation by discontinuous density gradient centrifugation (DGC). […] A minimum of 3 prepared donor samples were routinely pooled to reduce donor-to-donor variability for primary screening assays. Pooled samples were incubated for 3 h at 37 °C under noncapacitating conditions.
In brief, screening batches of cells were transferred to a robotic platform (HighRes Biosolutions Inc.) and maintained during the screen at 37 °C at 5% CO2. Assay-ready 384-well plates containing compounds were prepared prior to the screen and filled with approximately 10,000 spermatozoa (20 μL) per well using a liquid handling system (MultiDrop Combi; ThermoFisher). These plates were incubated for 10 min prior to imaging. The HTS system utilized a Yokogawa CV7000 Cell Voyager high-throughput microscope to record time-lapse images from 2 positions in each well. An adaptation of a tracking algorithm, Trackpy v0.4.1 was utilized to track individual spermatozoa within each well and obtain kinematic parameters. Within the compound-test plates, DMSO was used as the vehicle control.
All steps were performed as previously described. , In summary, data from every compound well were normalized to those from in-plate DMSO controls (wells containing the same amount of DMSO as compound wells). Two positions were recorded in every well, and the average of those positions was used for calculating % of control (median value/DMSO median) × 100. Each plate contained 16 DMSO control wells. Median curvilinear velocity (VCL) was used as the primary readout for the NPSC Diversity Set screened at 6 μM, and percentage progressive motility (PM) was used for all other libraries screened. Hits from the primary screening were chosen based on the % change compared to the control. In these experiments, an RSM of ≥20% compared to negative controls (DMSO) was chosen as a cutoff for potential progression.
In a screening program of this scale, a significant number of compounds are likely to have a negative effect on sperm motility, but a number will show general toxicity. […]

Aqueous solubility = format: physicochemical
[1] = 10 min, 10 min incubation, reported <X (neg. log of top concentration) if largest reduction <70%, read-out: RSM pEC50 10 mins (converted)
[2] = 3 h incubation, reported <X if largest reduction <70%, read-out: RSM pEC50 3 hrs (converted)
[3] = 6 h incubation, reported <X if largest reduction <70%, read-out: RSM pEC50 6 hrs (converted)

| SMILES | EC50 (human sperm; [1]) [µM] | EC50 (human sperm; [2]) [µM] | EC50 (human sperm; [3]) [µM] | solubility (Aqueous solubility) [µM] | EC50 (HepG2 cells) [µM] |
| --- | --- | --- | --- | --- | --- |
| Nc1nc2c(Cl)c(Cl)ccc2s1 [Compound 4b] | > 31.6 | > 31.6 | > 31.6 | 60 (≈ 13.1 µg/mL) | 50.1 |
| CC(C)C(=O)Nc1nc2c(Cl)c(Cl)ccc2s1 [Compound 4c] | 10 | 6.31 | 5.01 | 18 (≈ 5.21 µg/mL) | 50.1 |
| O=C(Nc1nc2c(Cl)c(Cl)ccc2s1)C1CC1 [Compound 4d] | 10 | 3.98 | 3.98 | 12 (≈ 3.45 µg/mL) | 50.1 |
| CC(C)CC(=O)Nc1nc2c(Cl)c(Cl)ccc2s1 [Compound 4e] | > 31.6 | 6.31 | 6.31 | 4.5 (≈ 1.36 µg/mL) | > 100 |
| O=C(Nc1nc2c(Cl)c(Cl)ccc2s1)C1CCCC1 [Compound 4f] | 10 | 5.01 | 3.98 | 4.2 (≈ 1.32 µg/mL) | 50.1 |
| O=C(Nc1nc2c(Cl)c(Cl)ccc2s1)c1ccccc1 [Compound 4g] | 10 | 3.98 | 3.98 | 0.6 (≈ 0.194 µg/mL) | 100 |
| NC(=O)Nc1nc2c(Cl)c(Cl)ccc2s1 [Compound 4h] | > 31.6 | > 31.6 | > 31.6 | 190 (≈ 49.8 µg/mL) | 63.1 |
| O=C(Nc1nc2c(Cl)cccc2s1)C1CC1 [Compound 4i] | > 31.6 | > 31.6 | > 31.6 | 5.1 (≈ 1.29 µg/mL) | > 100 |
| O=C(Nc1nc2cc(Cl)ccc2s1)C1CC1 [Compound 4j] | > 31.6 | > 31.6 | > 31.6 | 3.4 (≈ 0.859 µg/mL) | > 100 |
| O=C(Nc1nc2c(F)c(F)ccc2s1)C1CC1 [Compound 4k] | > 31.6 | > 31.6 | > 31.6 | 8.5 (≈ 2.16 µg/mL) | > 100 |
| O=C(Nc1nc2cc(F)c(F)cc2s1)C1CC1 [Compound 4l] | > 31.6 | > 31.6 | > 31.6 | 4 (≈ 1.02 µg/mL) | > 100 |
| Cc1ccc2sc(NC(=O)C3CC3)nc2c1C [Compound 4m] | > 31.6 | > 31.6 | > 31.6 | 5.5 (≈ 1.35 µg/mL) | > 100 |

Second part, led by results:

| EC50 (human sperm; [1]) [µM] | EC50 (human sperm; [2]) [µM] | EC50 (human sperm; [3]) [µM] | solubility (Aqueous solubility) [µM] | SMILES | EC50 (HepG2 cells) [µM] |
| --- | --- | --- | --- | --- | --- |
| > 31.6 | > 31.6 | > 31.6 | 4.9 (≈ 1.81 µg/mL) | CCN(CC)C(=O)c1cc(Nc2ccnc3cc(Cl)ccc23)ccc1O [Compound 5d] | > 100 |
| > 31.6 | > 31.6 | 0.316 | 3.5 (≈ 0.948 µg/mL) | Oc1ccc(Nc2ccnc3cc(Cl)ccc23)cc1 [Compound 5e] | 79.4 |
| > 31.6 | > 31.6 | > 31.6 | 210 (≈ 58.1 µg/mL) | OC1CCC(Nc2ccnc3cc(Cl)ccc23)CC1 (stereo not shown) [Compound 5f] | > 100 |
| > 31.6 | > 31.6 | > 31.6 | 4.9 (≈ 1.4 µg/mL) | COc1ccc(Nc2ccnc3cc(Cl)ccc23)cc1 [Compound 5g] | > 100 |
| > 31.6 | > 31.6 | > 31.6 | 220 (≈ 59.8 µg/mL) | Oc1ccc(Nc2ccnc3cc(Cl)ccc23)cn1 [Compound 5i] | > 100 |
| > 31.6 | > 31.6 | > 31.6 | 6.7 (≈ 1.82 µg/mL) | Oc1ccc(Nc2ccnc3cc(Cl)ccc23)nc1 [Compound 5j] | > 100 |
| > 31.6 | > 31.6 | > 31.6 | 11 (≈ 3.23 µg/mL) | Clc1ccc2c(Nc3ccc4[nH]ccc4c3)ccnc2c1 [Compound 5k] | 12.6 |
| > 31.6 | > 31.6 | 1.58 | 1.1 (≈ 0.323 µg/mL) | Cc1ccc(Nc2cc(C)nn2-c2nc(C)cc(C)n2)cc1 [Compound 6b, 1-(4,6-Dimethylpyrimidin-2-yl)-3-methyl-N-(p-tolyl)-1H-pyrazol-5-amine] | > 100 |
